Measured values: patent US20130338114A1, “COMPOSITIONS FOR INCREASING STRENGTH, MUSCLE MASS, AND LEAN BODY MASS” (Chemi Nutra, priority 2012, published 2013)

Key:
[1] = LC/MS/MS analysis of LPA and PA in human plasma after oral PA (Example 8); settings: in vivo
From the text: Lyso-phosphatidic acid (LPA) and phosphatidic acid (PA) from human plasma includes a physical distribution of molecules varying in their fatty acids esterified to the sn-1 and sn-2 positions of glycerol-3-phosphate. The differences in polarity among the fatty acid substituted structures provide a means to resolve individual species under reversed phase chromatographic conditions. This analysis coupled with selective mass spectrometric detection based on molecular weight and distinctive fragmentation for LPA and PA compounds provided the basis for quantitation in the samples described herein. Total LPA and PA content are measured as the sum of the individual species measured.
Human plasma of a subject was analyzed after administration of lyso-phosphatidic acid and phosphatidic acid. One subject consumed 2 g of PA in form of Mediator® (Chemi Nutra). The data from the study provided the composition and concentration of PA and lyso-PA in human blood plasma as a baseline value, and changes in PA and lyso-PA concentrations after 30 minutes, 1 hour, 2 hours, 3 hours and 7 hours. It was determined that PA administration results in increases in lyso-PA and PA concentrations in human blood plasma.
An ultra performance liquid chromatograph with triple quadrupole mass spectrometry (LC/MS/MS) method was utilized to measure the content of LPA and PA molecular species in human plasma. A Waters Acquity™ Ultra-performance liquid chromatography system coupled with an AB Sciex 5500 tandem quadrupole mass spectrometer was the instrumentation platform.
Column: Agilent, Eclipse™ XDB-C8 4.6×150 mm, 1.8 μm, sn. USHAN01857, pn. 927975-906. Flow=1 mL/minute at 40° C. Mobile phases: A=70:28.5:1.5 (/v) methanol:water:acetic acid with 0.08% TEA/v;
The identified molecular species were detected using a multiple reaction monitoring (MRM) technique for the -ve mode exact mass of [M-H]^− and the corresponding fragment 153 amu. […]
The content of each molecular species was calculated from the internal standards present in each sample extract. […]

[2] = tested on: known non-responder to creatine supplementation; experiment: Creatine non-responder Subject B (MP): body weight and total strength, three-week strength training program; type: in vivo, human; settings: subject two
Procedure: patient two, 185 cm tall, also a known non-responder to creatine supplementation, followed a three-week strength training program while testing whether supplementation with PA-enriched-phospholipid improves creatine response. Total starting total body weight and strength were measured on day one, followed by the training program, consisting of concentric and eccentric isotonic lifting exercises that worked the upper and lower body muscle groups with either free weights or weight machines used once or twice weekly. Strength training was performed three times per week with at least one day of rest between sessions, which alternated between lower and upper body exercises. During the three-week period, a total of 10 training sessions (five upper body and five lower body) were performed. Each exercise included two sets of ten repetitions at 40% and 65% 1RM, followed by two sets of 3 to 5 repetitions at 90% 1RM.
The lower body exercise included seven different exercises: seated leg press, leg curls, standing calf raises, leg extension, inclined leg lift, inverted situps (back extension) and 45° inclined situps. The upper body exercise consisted of seven different exercises: bench press, latissimus pulldown, triceps pulldown, inclined dumbbell curls, seated preacher curls, seated rows, and CyBec Pec Fly. Total upper body and lower body weight lifted were calculated as the average weight lifted during the last three sets multiplied by the average repetition in each set. Total strength was determined as the combined lower and upper total weight lifted. […] Strength was measured on days 1 and 22.
A four-week rest period followed the first three-week training program. The same program was repeated twice, the control was supplemented with creatine monohydrate (Creapure®, Alzchem, Germany), 5 grams per day of five grams creatine monohydrate for 21 days. During the second program, creatine monohydrate was given as for the control program with the addition of 1 gram per day PA-enriched phospholipid (Chemi Nutra, White Bear Lake, Minn.), which contained about 50% PA.

[3] = tested on: known non-responder to creatine supplementation; experiment: Creatine non-responder Subject A (RJ): body weight and total strength, two-week strength training program; type: in vivo, human; settings: subject one
Procedure: patient one, 198 cm tall, a known non-responder to creatine supplementation, followed a two-week strength training program while testing whether supplementation with PA-enriched-phospholipid improves creatine response. Total starting body weight and strength were measured on day one, followed by the training program, consisting of concentric and eccentric isotonic lifting exercises that worked the upper and lower body muscle groups. Either free weights or weight machines were used once or twice weekly. Strength training was performed three times per week with at least one day of rest between sessions, which alternated between lower and upper body exercises. During the two-week period, a total of six training sessions (three upper and three lower) were performed. Each exercise included two sets of ten repetitions at 30% and 60% 1RM, followed by two sets of 3 to 5 repetitions at 90% 1RM. The lower body exercise included seven different exercises: seated leg press, leg curls, standing calf raises, leg extensions, inclined leg lift, inverted situps (back extension) and 45° inclined situps. The upper body exercise consisted of seven different exercises: bench press, latissimus pulldown, triceps pulldown, inclined dumbbell curls, seated preacher curls, seated rows, and CyBec Pec Fly. Total upper body weight and lower body weight lifted were calculated as the average weight lifted during the last three sets multiplied by the average repetition in each set. Total strength was determined as the combined lower and upper total weight lifted. Total body weight was determined after day 8 and day 15. Strength was measured on days 1 and 15. A four-week rest period followed the first two-week training program. The same program was repeated twice, the control was supplementation of creatine monohydrate (Creapure, Alzchem, Germany) 4 times 5 grams per day for five days of loading, followed by nine days of five grams creatine monohydrate. During the second program, creatine monohydrate was given as for the control program with the addition of PA-enriched phospholipid (Chemi Nutra, White Bear Lake, Minn.) which was about 50% PA.

Compound: CCCCCCCCCCCCCC(=O)OC[C@@H](O)COP(=O)(O)O [14:0 LPA]
- plasma concentration, Time 0 @10 AM [1]: 13.00 nM

Compound: CCCCCCCCCCCCCCCC(=O)OCC(O)COP(=O)(O)O (centres unmarked) [16:0 LPA]
- plasma concentration, Time 0 @10 AM [1]: 51.33 nM

Compound: CCCCCCCCCCCCCCCCCC(=O)OC[C@@H](O)COP(=O)(O)O [18:0 LPA]
- plasma concentration, Time 0 @10 AM [1]: 0.00 nM

Compound: CN(CC(=O)O)C(=N)N [Creatine Supplement, N-methyl-N-guanyl glycine]
- body weight, day 1 ([2]; day 1): 81.9 kg
- increase in total strength (total weight lifted) ([2]; day 1 to day 22): 5%
- body weight, day 10 ([2]; day 10): 81.5 kg
- body weight, day 22 ([2]; day 22): 81.2 kg
- body weight, day 1 ([3]; day 1): 88.8 kg
- increase in total strength (total weight lifted) ([3]; day 1 to day 15): 5%
- body weight, day 8 ([3]; day 8): 88.3 kg
- body weight, day 15 ([3]; day 15): 88.0 kg
